Experimental findings from patent US20140243302A1, “BRIDGED BICYCLIC COMPOUNDS FOR THE TREATMENT OF BACTERIAL INFECTIONS” (priority 2011, published 2014) are described below.

SMILES strings stand for the structures. In brackets after ≈: the same amount, converted by molar mass.

In the experiment the test system is Staphylococcus aureus Smith. Kind of experiment: MIC assay, modified agar dilution (CLSI), S. aureus Smith. In kind it is cell-based. Conditions: Staphylococcus aureus, agar dilution, 35° C., 16-20 hr; lowest concentration that completely inhibited growth; read-out: S_aureus_Smith_WT_MIC. Summed up:
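Agar dilution per CLSI on Mueller Hinton agar (plus 5% horse blood for S. pneumoniae and E. faecium), compound 128 to 0.001 μg/mL in two-fold steps. Spots of ~1×10^4 CFU incubated at 35 °C for 16-20 hr before MIC scoring.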
(In general: In agar dilution, organisms are placed on agar that contains the substance at set levels.)
For `O=C1COc2ccc(CNC34CCC(C(O)Cc5c(F)cnc6ccc(OCCCO)nc56)(CC3)OC4)nc2N1` (stereo not shown) [Example 158, 6-{[(1-{2-[3-Fluoro-6-(3-hydroxypropoxy)-1,5-naphthyridin-4-yl]-1-hydroxyethyl}-2-oxabicyclo[2.2.2]oct-4-yl)amino]methyl}-2H-pyrido[3,2-b][1,4]oxazin-3(4H)-one], the MIC turned out to be 0.125 mg/L (≈ 0.226 µM). As to `N#Cc1cnc2ccc(=O)n(CC(O)C34CCC(NCc5ccc6c(n5)NC(=O)CO6)(CC3)CO4)c2c1` (stereo not shown) [Example 162, 5-(2-Hydroxy-2-(4-((3-oxo-3,4-dihydro-2H-pyrido[3,2-b][1,4]oxazin-6-yl)methylamino)-2-oxabicyclo[2.2.2]octan-1-yl)ethyl)-6-oxo-5,6-dihydro-1,5-naphthyridine-3-carbonitrile], the MIC turned out to be 2 mg/L (≈ 3.98 µM). Consider `COc1ccc2ncc(F)c(CCC34CCC(NCc5ccc6c(n5)NS(=O)(=O)CO6)(CC3)CO4)c2n1` [Example 163, 7-((1-(2-(3-Fluoro-6-methoxy-1,5-naphthyridin-4-yl)ethyl)-2-oxabicyclo[2.2.2]octan-4-ylamino)methyl)-1H-pyrido[2,3-e][1,3,4]oxathiazine-2,2-dioxide], for which the MIC amounted to 4 mg/L (≈ 7.55 µM). As for `N[C@H]1C(=O)N[C@@H]1COc1ccc2ncc(F)c(CCC34CCC(NCc5ccc6c(n5)NC(=O)CO6)(CC3)CO4)c2n1` [Example 164, 6-((1-(2-(6-(((2S,3R)-3-Amino-4-oxoazetidin-2-yl)methoxy)-3-fluoro-1,5-naphthyridin-4-yl)ethyl)-2-oxabicyclo[2.2.2]octan-4-ylamino)methyl)-2H-pyrido[3,2-b][1,4]oxazin-3(4H)-one], the figure is 0.5 mg/L (≈ 0.866 µM). As for `NCC(O)COc1ccc2ncc(F)c(CCC34CCC(NCc5ccc6c(n5)NC(=O)CO6)(CC3)CO4)c2n1` (stereo not shown) [Example 165, 6-{[(1-{2-[6-(3-Amino-2-hydroxypropoxy)-3-fluoro-1,5-naphthyridin-4-yl]ethyl}-2-oxabicyclo[2.2.2]oct-4-yl)amino]methyl}-2H-pyrido[3,2-b][1,4]oxazin-3(4H)-one], the figure is 2 mg/L (≈ 3.62 µM); as for `O=C1COc2ccc(CNC34CCC(CCc5c(F)cnc6ccc(OC7CC(O)CC(O)C7)nc56)(CC3)OC4)nc2N1` (stereo not shown) [Example 166, 6-({[1-(2-{6-[(3,5-Dihydroxycyclohexyl)oxy]-3-fluoro-1,5-naphthyridin-4-yl}ethyl)-2-oxabicyclo[2.2.2]oct-4-yl]amino}methyl)-2H-pyrido[3,2-b][1,4]oxazin-3(4H)-one], 0.5 mg/L (≈ 0.842 µM). In the case of `COc1ccc2ncc(F)c(CC(OCCO)C34CCC(NCc5ccc6c(n5)NC(=O)CO6)(CC3)CO4)c2n1` (stereo not shown) [Example 167, 6-[({1-[2-(3-Fluoro-6-methoxy-1,5-naphthyridin-4-yl)-1-(2-hydroxyethoxy)ethyl]-2-oxabicyclo[2.2.2]oct-4-yl}amino)methyl]-2H-pyrido[3,2-b][1,4]oxazin-3(4H)-one], the MIC turned out to be 2 mg/L (≈ 3.61 µM). For `COC(=O)N(Cc1ccc2c(n1)NC(=O)CO2)C12CCC(CCc3c(F)cnc4ccc(OC)nc34)(CC1)OC2` [Example 168, Methyl {1-[2-(3-Fluoro-6-methoxy-1,5-naphthyridin-4-yl)ethyl]-2-oxabicyclo[2.2.2]oct-4-yl}[(3-oxo-3,4-dihydro-2H-pyrido[3,2-b][1,4]oxazin-6-yl)methyl]carbamate], the MIC worked out at 16 mg/L (≈ 29 µM). As for `O=C1COc2ccc(CNC34CCC(CCc5c(F)cnc6ccc(OC[C@H]7C[C@@H](O)[C@@H](O)C7)nc56)(CC3)OC4)nc2N1` [Example 169, 6-((1-(2-(6-(((1r,3R,4S)-3,4-Dihydroxycyclopentyl)methoxy)-3-fluoro-1,5-naphthyridin-4-yl)ethyl)-2-oxabicyclo[2.2.2]octan-4-ylamino)methyl)-2H-pyrido[3,2-b][1,4]oxazin-3(4H)-one], the MIC was 0.063 mg/L (≈ 0.106 µM). On to `O=C1COc2ccc(CNC34CCC(CCc5c(F)cnc6ccc(OCC7(O)COC7)nc56)(CC3)OC4)nc2N1` [Example 170, 6-((1-(2-(3-Fluoro-6-((3-hydroxyoxetan-3-yl)methoxy)-1,5-naphthyridin-4-yl)ethyl)-2-oxabicyclo[2.2.2]octan-4-ylamino)methyl)-2H-pyrido[3,2-b][1,4]oxazin-3(4H)-one], for which the MIC is 0.125 mg/L (≈ 0.221 µM).
